# In patent publication US7029886B1, “Enzymatic substrate, synthesis method and uses” (Bio Merieux, priority 1999, dated 2006):
# Marks after values point to notes of the source that are not given here.
# Tests used:
# [1] = tested on: E. coli 115; experiment: Influence of the incubation atmosphere on revelation of β-D-galactosidase (Table IV)
# [2] = tested on: E. coli 206; experiment: as above
# [3] = tested on: S. marcescens 042; experiment: as above; details: 48 H
# [4] = tested on: E. cloacae 061; experiment: as above
# [5] = tested on: E. faecium 255; experiment: as above
# [6] = tested on: E. cloacae (NCTC, 11936); experiment: CBR-gal in a liquid medium, pink coloration over time (Table V); format: cell-based; set-up: key: — signifies a lack of coloration, even after 24 hours
# Experimental: (§1) The CBR-gal substrate is tested in a liquid medium, at various concentrations from 0.5 mg/ml to 0.0078 mg/ml. The liquid reaction medium into which the substrate is incorporated is composed of a phosphate buffer, pH 7.4, containing 0.5% of nutrient broth and 0.5% of NaCl. 30 microliters/ml of IPTG are added to the medium for all the substrate concentrations. The strains tested are E. coli (NCTC, 10418), K. pneumoniae (NCTC, 10896), P. rettgeri (NCTC, 7475), E. cloacae (NCTC, 11936), S. marcescens (NCTC, 10211) and S. typhimurium (NCTC, 74), with an inoculum of 0.5 McFarland.
# [7] = tested on: E. coli (NCTC, 10418); experiment: as above; format: cell-based; set-up: key: — signifies a lack of coloration, even after 24 hours
# Experimental: as §1
# [8] = tested on: K. pneumoniae (NCTC, 10896); experiment: as above; format: cell-based; set-up: key: — signifies a lack of coloration, even after 24 hours
# Experimental: as §1
# [9] = tested on: P. rettgeri (NCTC, 7475); experiment: as above; format: cell-based; set-up: key: — signifies a lack of coloration, even after 24 hours
# Experimental: as §1
# [10] = tested on: S. marcescens (NCTC, 10211); experiment: as above; format: cell-based; set-up: key: — signifies a lack of coloration, even after 24 hours
# Experimental: as §1
# [11] = tested on: S. typhimurium (NCTC, 74); experiment: as above; format: cell-based; set-up: key: — signifies a lack of coloration, even after 24 hours
# Experimental: as §1
# [12] = tested on: E. cloacae (NCTC, 11936); experiment: CBR-gal in Columbia agar (solid medium); format: cell-based; details: 2, 6, 10 and 20 mg/100 ml, 37° C. overnight
# Experimental: (§2) The CBR-gal substrate is incorporated into a Columbia agar at the following concentrations: 2, 6, 10 and 20 mg/100 ml, and the medium thus prepared is distributed into dishes. Each dish is inoculated with the following organisms: E. coli (NCTC, 10418), K. pneumoniae (NCTC, 10896), P. rettgeri (NCTC, 7475), E. cloacae (NCTC, 11936), S. marcescens (NCTC, 10211) and S. typhimurium (NCTC, 74). IPTG is incorporated into all these media, at a concentration of 3 mg per 100 ml of Columbia agar. All the dishes are incubated at 37° C. overnight.
# [13] = tested on: E. coli (NCTC, 10418); experiment: CBR-gal in Columbia agar (solid medium); format: cell-based; details: 2, 6, 10 and 20 mg/100 ml, 37° C. overnight
# Experimental: as §2
# [14] = tested on: K. pneumoniae (NCTC, 10896); experiment: CBR-gal in Columbia agar (solid medium); format: cell-based; details: 2, 6, 10 and 20 mg/100 ml, 37° C. overnight
# Experimental: as §2
# [15] = tested on: S. marcescens (NCTC, 10211); experiment: CBR-gal in Columbia agar (solid medium); format: cell-based; details: 2, 6, 10 and 20 mg/100 ml, 37° C. overnight
# Experimental: as §2
# [16] = tested on: E. coli, K. pneumoniae, P. rettgeri, E. cloacae, S. marcescens and S. typhimurium; format: cell-based; details: Columbia agar, 37° C. overnight
# Experimental: as §2
smiles,measurement,setting,value
"OC[C@H]1O[C@@H](Oc2c[nH]c3ccc(Br)c(Cl)c23)[C@H](O)[C@@H](O)[C@H]1O [X-Gal, reference compound]",intensity of coloration (arbitrary scale based on a visual observation),"[1]; 24 H, AE (aerobiosis)",3*
same,intensity of coloration (arbitrary scale based on a visual observation),"[1]; 24 H, CO2",2
same,intensity of coloration (arbitrary scale based on a visual observation),"[1]; 24 H, MAP (microaerophily)",2
same,intensity of coloration (arbitrary scale based on a visual observation),"[1]; 48 H, AE (aerobiosis)",3
same,intensity of coloration (arbitrary scale based on a visual observation),"[1]; 48 H, ANA (anaerobiosis)",1
same,intensity of coloration (arbitrary scale based on a visual observation),"[1]; 48 H, CO2",2
same,intensity of coloration (arbitrary scale based on a visual observation),"[1]; 48 H, MAP (microaerophily)",2
same,intensity of coloration (arbitrary scale based on a visual observation),"[2]; 24 H, AE (aerobiosis)",3
same,intensity of coloration (arbitrary scale based on a visual observation),"[2]; 24 H, ANA (anaerobiosis)",1
same,intensity of coloration (arbitrary scale based on a visual observation),"[2]; 24 H, CO2",3
same,intensity of coloration (arbitrary scale based on a visual observation),"[2]; 24 H, MAP (microaerophily)",1
same,intensity of coloration (arbitrary scale based on a visual observation),"[2]; 48 H, AE (aerobiosis)",3
same,intensity of coloration (arbitrary scale based on a visual observation),"[2]; 48 H, ANA (anaerobiosis)",1
same,intensity of coloration (arbitrary scale based on a visual observation),"[2]; 48 H, CO2",3
same,intensity of coloration (arbitrary scale based on a visual observation),"[2]; 48 H, MAP (microaerophily)",1
same,intensity of coloration (arbitrary scale based on a visual observation),[3]; AE (aerobiosis),1
same,intensity of coloration (arbitrary scale based on a visual observation),[3]; CO2,2
same,intensity of coloration (arbitrary scale based on a visual observation),[3]; MAP (microaerophily),1
same,intensity of coloration (arbitrary scale based on a visual observation),"[4]; 24 H, AE (aerobiosis)",2
same,intensity of coloration (arbitrary scale based on a visual observation),"[4]; 24 H, CO2",2
same,intensity of coloration (arbitrary scale based on a visual observation),"[4]; 24 H, MAP (microaerophily)",1
same,intensity of coloration (arbitrary scale based on a visual observation),"[4]; 48 H, AE (aerobiosis)",2
same,intensity of coloration (arbitrary scale based on a visual observation),"[4]; 48 H, ANA (anaerobiosis)",1
same,intensity of coloration (arbitrary scale based on a visual observation),"[4]; 48 H, CO2",2
same,intensity of coloration (arbitrary scale based on a visual observation),"[4]; 48 H, MAP (microaerophily)",1
same,intensity of coloration (arbitrary scale based on a visual observation),"[5]; 24 H, AE (aerobiosis)",1
same,intensity of coloration (arbitrary scale based on a visual observation),"[5]; 48 H, AE (aerobiosis)",3
same,intensity of coloration (arbitrary scale based on a visual observation),"[5]; 48 H, CO2",1
same,intensity of coloration (arbitrary scale based on a visual observation),"[5]; 48 H, MAP (microaerophily)",1
"O=c1cc2oc3cc(OC4OC(CO)C(O)C(O)C4O)c(Cl)cc3nc-2c2ccccc12 [CBR-gal, 8-chloro-1,2-benzoresorufin-β-D-galactoside]",time until pink coloration,[6]; CBR-gal substrate 0.0078 mg/ml,—
same,time until pink coloration,[6]; CBR-gal substrate 0.0156 mg/ml,—
same,time until pink coloration,[6]; CBR-gal substrate 0.0313 mg/ml,24 h
same,time until pink coloration,[6]; CBR-gal substrate 0.0625 mg/ml,4 h
same,time until pink coloration,[6]; CBR-gal substrate 0.125 mg/ml,4 h
same,time until pink coloration,[6]; CBR-gal substrate 0.25 mg/ml,2 h
same,time until pink coloration,[6]; CBR-gal substrate 0.5 mg/ml,2 h
same,time until pink coloration,[7]; CBR-gal substrate 0.0078 mg/ml,—
same,time until pink coloration,[7]; CBR-gal substrate 0.0156 mg/ml,—
same,time until pink coloration,[7]; CBR-gal substrate 0.0313 mg/ml,24 h
same,time until pink coloration,[7]; CBR-gal substrate 0.0625 mg/ml,4 h
same,time until pink coloration,[7]; CBR-gal substrate 0.125 mg/ml,4 h
same,time until pink coloration,[7]; CBR-gal substrate 0.25 mg/ml,2 h
same,time until pink coloration,[7]; CBR-gal substrate 0.5 mg/ml,2* hours
same,time until pink coloration,[8]; CBR-gal substrate 0.0078 mg/ml,—
same,time until pink coloration,[8]; CBR-gal substrate 0.0156 mg/ml,—
same,time until pink coloration,[8]; CBR-gal substrate 0.0313 mg/ml,24 h
same,time until pink coloration,[8]; CBR-gal substrate 0.0625 mg/ml,4 h
same,time until pink coloration,[8]; CBR-gal substrate 0.125 mg/ml,4 h
same,time until pink coloration,[8]; CBR-gal substrate 0.25 mg/ml,2 h
same,time until pink coloration,[8]; CBR-gal substrate 0.5 mg/ml,2 h
same,time until pink coloration,[9]; CBR-gal substrate 0.0078 mg/ml,—
same,time until pink coloration,[9]; CBR-gal substrate 0.0156 mg/ml,—
same,time until pink coloration,[9]; CBR-gal substrate 0.0313 mg/ml,—
same,time until pink coloration,[9]; CBR-gal substrate 0.0625 mg/ml,—
same,time until pink coloration,[9]; CBR-gal substrate 0.125 mg/ml,—
same,time until pink coloration,[9]; CBR-gal substrate 0.25 mg/ml,—
same,time until pink coloration,[9]; CBR-gal substrate 0.5 mg/ml,—
same,time until pink coloration,[10]; CBR-gal substrate 0.0078 mg/ml,—
same,time until pink coloration,[10]; CBR-gal substrate 0.0156 mg/ml,—
same,time until pink coloration,[10]; CBR-gal substrate 0.0313 mg/ml,24 h
same,time until pink coloration,[10]; CBR-gal substrate 0.0625 mg/ml,24 h
same,time until pink coloration,[10]; CBR-gal substrate 0.125 mg/ml,24 h
same,time until pink coloration,[10]; CBR-gal substrate 0.25 mg/ml,24 h
same,time until pink coloration,[10]; CBR-gal substrate 0.5 mg/ml,24 h
same,time until pink coloration,[11]; CBR-gal substrate 0.0078 mg/ml,—
same,time until pink coloration,[11]; CBR-gal substrate 0.0156 mg/ml,—
same,time until pink coloration,[11]; CBR-gal substrate 0.0313 mg/ml,—
same,time until pink coloration,[11]; CBR-gal substrate 0.0625 mg/ml,—
same,time until pink coloration,[11]; CBR-gal substrate 0.125 mg/ml,—
same,time until pink coloration,[11]; CBR-gal substrate 0.25 mg/ml,—
same,time until pink coloration,[11]; CBR-gal substrate 0.5 mg/ml,—
same,coloration of the bacterial colony,[12],pink coloration
same,coloration of the bacterial colony,[13],pink coloration
same,coloration of the bacterial colony,[14],pink coloration
same,coloration of the bacterial colony,[15],pink coloration
same,optimum concentration to obtain a clearly visible pink coloration without any background noise,[16],around 10 mg/100 ml
